Assay results as given in patent US20230067609A1, “ENDOPHYTIC MICROBES FOR GROWTH PROMOTION OF CROP PLANTS AND SUPPRESSION OF AGGRESSIVE INVASIVE PLANT SPECIES, BIOHERBICIDES COMPRISING THE SAME AND METHODS OF USE THEREOF” (priority 2018, published 2023).

Experiments:
Format in all cases: in vivo
Poa annua = experiment: Screen of short-chain organic acids for effects on roots, agarose medium, seeds inoculated with Pseudomonas strain SLB4; conditions: for Inhibitory Activity On Germination / Inhibitory Activity On Gravitropism / Inhibitory Activity On Hair Length / Inhibitory Activity On Root Length / Inhibitory Activity On Bact. Entry: organic acids 0-1 mM in 0.7% agarose, 7 days; for Inhibitory Activity On Bact. Entry: Pseudomonas strain SLB4
Poa reptans seedlings = experiment: Seeds germinated on agarose with and without 0.05% arginine
Source text: In laboratory experiments, we germinated seeds of the grass Poa reptans on agarose with and without 0.05% arginine.
This is further evidence that exposure of plants to arginine results in excess production of reactive oxygen species (ROS).

[1] = system: Phragmites australis plants; experiment: Sodium butyrate applied to roots over a 6-week period; conditions: 10 mM applied to roots over a 6-week period

SMILES	seedling growth inhibition (Poa annua)	Inhibitory Activity On Germination (Poa annua)	Inhibitory Activity On Gravitropism (Poa annua)	Inhibitory Activity On Hair Length (Poa annua)	Inhibitory Activity On Root Length (Poa annua)	Inhibitory Activity On Bact. Entry (Poa annua)	chlorophylls in shoot cells (Poa reptans seedlings; 0.05% arginine)	growth of shoots and roots (Poa reptans seedlings; 0.05% arginine in agarose, 7 days)	colonization of chloroplasts by bacteria (Poa reptans seedlings; 0.05% arginine, leaf cells, microscopy)	root hairs (Poa reptans seedlings; arginine-treated seedlings)	hydrogen peroxide around roots (Poa reptans seedlings; diaminobenzidine tetrahydrochloride stain)	superoxide in roots (Poa reptans seedlings; nitro blue tetrazolium staining)	effects on roots and shoots [1]
CC(=O)O [Acetic, Acetic acid]	seedling growth inhibition occurred	No	No	No	Yes	No							
CCCC(=O)O [Butyric, Butyric acid]	seedling growth inhibition occurred	No	Yes	Yes	Yes	Yes							
CCC(=O)O [Propionic, Propionic acid]	seedling growth inhibition occurred	No	Yes	Yes	Yes	Yes							
O=C(O)CC(O)(CC(=O)O)C(=O)O [Citric, Citric acid]	seedling growth inhibition occurred	No	Yes	Yes	Yes	No							
O=C(O)C(=O)O [Oxalic, Oxalic acid]	seedling growth inhibition occurred	No	Yes	Yes	Yes	Yes							
N=C(N)NCCC[C@H](N)C(=O)O [arginine]							lack evidence of chlorophylls	repression of shoots and roots	all chloroplasts were colonized by actively motile bacteria	longer root hairs	high levels of hydrogen peroxide around roots	higher presence of superoxide	
O=C(O)[C@]1(O)C[C@@H](O)[C@@H](O)[C@H](O)C1 [Quinic, Quinic acid]		No	No	No	No	No							
CCCC(=O)[O-].[Na+] [sodium butyrate]													suppression of root and shoot growth, reduced root branching, root browning, and increased bacterial and fungal growth on roots
CCCCCC(=O)O [Hexanoic, Hexanoic acid]	seedling growth inhibition occurred	No	Yes	Yes	Yes	No							
O=C(O)c1ccccc1 [Benzoic, Benzoic acid]	seedling growth inhibition occurred	No	Yes	Yes	Yes	No							
